# “And” between values parts separate entries of the source, which are not always exact repeats. Equal entries are not always repeated.
# How the values were obtained:
# [1] = test system: Saos-2 osteosarcoma cells; conditions: therapeutic concentrations, 14 days; reported in WO 2005/069880; cited from earlier work
# HeLa cells [2] = test: Telomere length (flow cytometry, PNA probe), cell cycle distribution (PI) and apoptosis in HeLa cells; format: cell-based, human
# Description: (§1) The ALT cell lines were treated with therapeutic concentrations of AZT, to determine if slippage telomeric DNA synthesis could be inhibited by AZT-TP, and thereby induce telomere shortening. Telomere length in AZT treated and untreated cell lines was measured by flow cytometry with a telomere specific peptide nucleic acid (PNA) probe. To determine cell cycle distribution, cells were stained with propidium iodide (PI).
# (§2) The origin of the cell lines are uterine cervix (HeLa) and epithelial ovarian (NuTu-19). Cells were cultured in D-MEM media supplemented with 10% fetal calf serum at 37° C. in a humidified atmosphere of 5% CO2. For treatment of the cells with GCV, the media was supplemented with 1.5 μM of GCV (Cymevene, Hoffman-La Roche). For treatment of the cells with ACV, the media was supplemented with 3 μM of Acyclovir (Acyclovir, TEVA Pharm. Ind. Id. Israel).
# (§3) Real time TRAP assay was performed as described (Wege et al., SYBR Green real-time telomeric repeat amplification protocol for the rapid quantification of telomerase activity. Nucleic Acids Res. 2003; 31(2):E3-3). For telomere length measurement by flow cytometry, cells were stained with telomere specific FITC conjugated (C3TA2)3 PNA (Applied Biosystems) probe and contrastained with 0.06 μg/ml PI as described by Rufer, N., Dragowska, W., Thornbury G., Roosnek, E., Lansdorp P. M. Telomere length dynamics in human lymphocyte subpopulations […]. Nat. Biotechnol. 16, 743-747 (1998)).
# (§4) Both telomerase positive (Hela) telomerase negative (U-2 OS) cell lines were used. Appropriate assays were performed to detect and confirm telomerase/L1RT specific activity in these cells.
# (§5) The U-2 OS (osteosarcoma) and HeLa (uterine cervix) cell lines used in this study were obtained from American Type Culture Collection (Rockville, Md.). Cells were cultured in D-MEM media supplemented with 10% fetal calf serum at 37° C. in a humidified atmosphere of 5% CO2. For treatment of the cells with ACV, the media was supplemented with 3 μM of acyclovir (acyclovir, TEVA Pharm. Ind. Ltd, Israel). For treatment of the cells with GCV, the media was supplemented with 1.5 μM of GCV (Cymevene, Hoffman-La Roche). For treatment of the cells with PCV, the media was supplemented with 1.5 μM of PCV (penciclovir, Merck & Co.).
# (§6) Telomere length in SN 1 or SN 2 treated and untreated cell lines was measured by flow cytometry with a telomere—specific peptide nucleic acid PNA) probe. To determine cell cycle distribution, cells were stained with propidium iodide (PI).
# (§7) The U-2 OS (osteosarcoma) and Hela (uterine cervix) cell lines used in this study were obtained from American Type Culture Collection (Rockville, Md.). Cells were cultured in D-MEM media supplemented with 10% fetal calf serum at 37° C. in a humidified atmosphere of 5% CO2. For treatment of the cells with SN 1 or SN 2, the media was supplemented with 1.5 μM of SN1 or SN2.
# (§8) For telomere length measurement by flow cytometry, cells were stained with telomere specific FITC conjugated (C3TA2)3 PNA (Applied Biosystems) probe and contra-stained with 0.06 μg/ml PI as described by Rufer, N., Dragowska, W., Thornbury G., Roosnek, E., Lansdorp P. M. Telomere length dynamics in human lymphocyte subpopulations […]. Nat. Biotechnol. 16, 743-747 (1998)).
# U-2 OS cells [3] = conditions: therapeutic concentrations, 14 days; reported in WO 2005/069880; cited from earlier work
# [4] = test system: Saos-2 osteosarcoma cells; test: Telomere length (flow cytometry, PNA probe), cell cycle distribution (PI) and apoptosis in Saos-2 cells; format: cell-based, human; conditions: therapeutic concentrations of AZT, 14 days
# Description: as §1
# U-2 OS/RAS cells = test: Prevention and treatment of telomerase negative (ALT) tumors in nude mice injected s.c. with U-2 OS/RAS cells; format: in vivo
# Description: (a) Nude mice injected with U-2 OS/RAS cells: Crl1:CD1-/nu mice were purchased from Charles River Laboratories, Charles River Deutschland GmbH (Dec. 23, 2004). A total of 12 Nude mice were injected s.c. with 6×10^5 U-2 OS/RAS cells. These mice were divided into experimental and control groups.
# The experimental group of mice started to receive AZT in drinking water (1 mg/ml) from the day one. In the control group, mice developed tumors (in N1 by the 26th day; in N2 by the […] and in N3 by the 41st day following the tumor cell injection).
# All mice without tumors were sacrificed. One mouse from control group that developed tumors first was sacrificed on the 51 day following the tumor cell injection. Tumor tissue was mechanically separated to raise cell suspension. About 20 million of cells were seeded in McCoy's 5 A media supplemented with 10% FCS. The tissue cultured cells were used for further analysis.
# Two mice from control group with tumors started to receive AZT in drinking water (1 mg/ml) from day 52. One mouse had died on day 80. Second was sacrificed on day 110 following the tumor cell injection. Tumor tissue was collected and stored at −80° C. for further analysis.
# U-2 OS cells [5] = test: Telomere length (flow cytometry, PNA probe), cell cycle distribution (PI), apoptosis and TRAP status in U-2 OS cells; format: cell-based, human
# Description: as §1
# Rate of DNA synthesis was determined by incorporation of 5-bromodeoxyuridine (BdU). […] It is important to note that changes in cell cycle distribution, DNA synthesis and telomere length were rapid and could be detected after only 10 days of AZT treatment.
# Telomere length in untreated and GCV treated cells was measured by flow cytometry with a telomere-specific PNA probe as described above.
# To determine cell cycle distribution, cells were stained with propidium iodide (PI).
# as §4, §5, §3
# (a) In vitro arrays: U-2 OS cells were incubated with 0.2 μM of AZT for 22 days. Actively growing clones were analyzed by flow-FISH with telomere specific PNA probe, and in real time TRAP assay using HeLa cells as positive control. Isolated actively growing clones were different from parental cells in DNA content and telomere length.
# as §6, §7, §8
# NuTu-19 cells = test: Telomere length (flow cytometry, PNA probe), cell cycle distribution (PI) and apoptosis in NuTu-19 cells; format: cell-based; conditions: AZT even at elevated concentrations e.g., 100 μM
# Description: as §2, §3
# [6] = test system: inoperable carcinoma of stomach; format: in vivo, human; conditions: one patient
# Description: (a) Background therapy: 1 tablet of Retrovir® (AZT) 300 mg and 1 tablet of Zovirax™ (acyclovir, Glaxo Welcome), 400 mg/Valcyte® (valganciclovir) 450 mg/Valtrex® (Val-ACV) 500 mg all BID. Different acyclic nucleoside analogs were used during the 83 days of background therapy for reasons related to market availability.
# HeLa cells [7] = format: in vivo
# Description: For in vivo assay, appropriate host, e.g., nude (nu/nu) mice of about 5-7 weeks old are obtained and maintained in pathogen-free conditions. Approximately, 1×10^6 HeLa cells (and/or U-2 OS cells) contained in 200 μl of serum-free media are delivered to all animals, briefly anaesthetize with Metofane, by subcutaneous (s.c.) injection in flank. Then the mice are divided into experimental group and control group. Appropriate concentrations of compounds of the formulas (I) to (VI), ACV, PCV and/or GCV are used for tumor growth progression or regression assays.
# In one embodiment, impairment of s.c. tumor growth or time to progression rather than decrease in size of an established tumor (regression) is assessed. In this embodiment, starting from the day zero, mice in the experimental group receive GCV in drinking water ad libitum. Concentration of GCV in water can be 2 mg/ml. Fresh solution of GCV is supplied every 3 days. Mice in the control group receive only drinking water. Tumors are measured every 2-3 days. Mice are sacrificed when tumors exceed 1 cm^3. Tumor volume is calculated with formula 4/3πr^3, where r is the radius of the tumor.
# Experimental group received valganciclovir in drinking water from day 0. Human cancer HeLa cell culture was purchased from ATCC. In all, 12 CD1/-nu and 12 NMRiI/-nu nude mice were purchased from Charles River Laboratories, Charles River Deutschland GmbH. These nude mice were injected s.c. with 3×10^5 Hela cells. Mice in the experimental groups (6 mice per strain) were exposed to Valcyte® (val-ganciclovir) in drinking water (1 mg/ml) from day 0.
# (a) In vivo assays using Valganciclovir and zidovudine (AZT) combination: Human cancer HeLa cell culture was purchased from ATCC. A total of 24 CD1/-nu nude mice were purchased from Charles River laboratories, Charles River Deutschland GmbH. These mice were injected s.c. with 1×10^5 HeLa cells. The tumor volumes were determined by measurement of maximal and minimal diameters of the tumor. The calculations were conducted using the formula V=4/3 πRmax×Rmin^2, where Rmax−½ of maximal diameter of the tumor, and Rmin−½ of minimal diameter of the tumor. nude mice were injected s.c. with 1×10^5 Hela cells.
# Of the 12 treated mice, after 20 days of double cocktail treatment, six mice were administered with a triple cocktail (Valcyte®+Retrovir®+ddI at the dose of 1 mg/ml each in drinking water for a further period 21 days (see Example 7 below) and only six mice continued to receive the double cocktail for another 21 days at which time tumor measurements were taken for all mice injected with HeLa cells. Of the remaining 12 mice injected with HeLa cells but untreated with any cocktail or anticancer agent thus far, six were maintained as controls for the rest of the duration of the experiment. The other six were treated with Xeloda® 67 days after the injection of HeLa cells (see Example 7 below).
# As mentioned in Example 5 above, a total of six mice, after 20 days of double cocktail treatment, were administered with a triple cocktail (Valcyte®+Retrovir®+ddI at the dose of 1 mg/ml each in drinking water) for a further period 21 days. After 14 days of triple cocktail treatment, Xeloda® at a concentration 1 mg/ml was added to the triple cocktail. Six mice previously untreated with any drug for 67 days after the injection of HeLa cells were treated with Xeloda® at a concentration 1 mg/ml in drinking water. Tumor measurements were taken in all mice 75 days following the injection of HeLa cells.
# MH22A cells = test: MH22a hepatoma tumors in C3HA mice, Cocktails 1-6 followed by added Xeloda (Example 10c, second experiment); format: in vivo, C3HA inbred mice
# Description: In Vivo assays using the compounds of the formulas (I) to (IV) and valine esters of formulas I and II each in a triple cocktail with other nucleoside analogs and tumor in combination with AZT and ddI were carried out as follows:
# 8-10 weeks old male C3HA inbred mice (immunocometent mice) were purchased from Laboratory Animals Breeding Facility of Russian Academy of Medical Science (Rappalovo, Leningrad region). 3×10^5 MH22a cells were injected s.c. into back flank of 200 mice. Ten days after the injections, mice bearing developing tumors (14.15 mm^3) (the tumor volume calculated using the formula π/6 DmaxDmin^2) were selected and randomly divided into different experimental groups as set forth below:
# Cocktail 1—Valacyclovir (0.166 mg/ml)+AZT (0.1 mg/ml)+ddI (0.066 mg/ml)−40 mice;
# Cocktail 2—SN-1 (1 mg/ml)+AZT (0.1 mg/ml)+ddI (0.066 mg/ml)−10 mice;
# Cocktail 3—SN-3 (1 mg/ml)+AZT (0.1 mg/ml)+ddI (0.066 mg/ml)−10 mice;
# Cocktail 4—SN4 (1 mg/ml)+AZT (0.1 mg/ml)+ddI (0.066 mg/ml)−10 mice;
# cocktail 5—Val-SN-1 (0.166 mg/ml)+AZT (0.1 mg/ml)+ddI (0.066 mg/ml)−20 mice; and
# Cocktail 6—Val-SN-2 (0.166 mg/ml)+AZT (0.1 mg/ml)+ddI (0.066 mg/ml)−20 mice; and
# Control group—Capecitabine (Xeloda®) (1 mg/ml) in drinking water-mice.
# Valacyclovir (Valtrex® manufactured by GlaxoSmithKline) is a prodrug of acyclovir, which is an acyclic nucleoside analog. Didanosine (ddI) and AZT are non-acyclic-nucleoside analogs. The drugs, at the concentrations indicated above, were administered to the mice in drinking water. Two weeks following the cocktail treatments Xeloda® (1 mg/ml) was added to each of the cocktails and continued for the remaining experimental period. In the control group, mice were treated only with Xeloda® (1 mg/ml) in drinking water and this treatment started at the same time as the Xeloda® treatments in the cocktail groups. […] Tumor volumes (mm^3) in each injected mice were calculated, using the formula π/6 DmaxDmin^2, every week for four consecutive weeks following the commencement of the treatment with the drugs.
# [8] = Xeloda 1 mg/ml added to cocktails after two weeks
SMILES,"telomere length, cell cycle and apoptosis [1]","telomere length or cell cycle distribution (HeLa cells [2]; AZT at the chosen concentration, same conditions as ALT cells)","telomere length or cell cycle distribution (HeLa cells [2]; AZT even at elevated concentrations e.g., 100 μM)","telomere length, cell cycle and apoptosis (U-2 OS cells [3])","telomere length, apoptosis and cell cycle distribution [4]",growth of established ALT tumors (U-2 OS/RAS cells; AZT in drinking water (1 mg/ml) from day 52),"tumor development (U-2 OS/RAS cells; AZT in drinking water (1 mg/ml) from day one, three of six control mice developed tumors)",telomerase status (real time TRAP assay) of actively growing clones (U-2 OS cells [5]; 0.2 μM of AZT for 22 days),telomere length and rate of DNA synthesis (BdU incorporation) (U-2 OS cells [5]; AZT for different amounts of time),"telomere length, apoptosis and cell cycle distribution (U-2 OS cells [5]; therapeutic concentrations of AZT, 14 days)",telomere length or cell cycle distribution (NuTu-19 cells),toxicity in the patient [6],average size of tumors less compared to the untreated control group (HeLa cells [7]; Xeloda 1 mg/ml in drinking water from day 67) [%],"survival (HeLa cells [7]; drugs 1 mg/ml each in drinking water, 75 days following injection of HeLa cells) [%]",Tumor Volume (mm^3) in nude mice 75 days following the injection of HeLa cells (HeLa cells [7]; mean value of 4 mice),"Number tumor-free (MH22A cells; 4 weeks of treatment, Xeloda 1 mg/ml added to cocktails after two weeks)",Number died during the 4 week treatment period (MH22A cells; [8]),Number showing tumors after four weeks of treatment (MH22A cells; [8]),"Tumor volume at the end of the experimental period (MH22A cells; individual tumor-bearing mice, formula π/6 DmaxDmin^2)"
"Cc1cn([C@H]2C[C@H](N=[N+]=[N-])[C@@H](CO)O2)c(=O)[nH]c1=O [AZT, azido-2′,3′-dideoxythymidine]","telomere shortening, G2 arrest and massive apoptosis",no effect on telomere length or cell cycle distribution,no effect on telomere length or cell cycle distribution,"telomere shortening, G2 arrest and massive apoptosis","telomere shortening, massive apoptosis and G2 arrest",slowing of tumor growth,No one mice from AZT treated group had developed tumors,positive for telomerase,progressive telomere shortening and decrease in DNA synthesis,"telomere shortening, massive apoptosis and G2 arrest",no effect on telomere length or cell cycle distribution,,,,,,,,
CCCCCOC(=O)Nc1nc(=O)n([C@@H]2O[C@H](C)[C@@H](O)[C@H]2O)cc1F [Xeloda®],,,,,,,,,,,,caused toxicity in the patient,17,66,1811.0 (mean value) mm^3,0,2,6,6288 mm^3 (2×) and 10480 mm^3 and 1152 mm^3 and 2146 mm^3 and 4192 mm^3
